{
  "source": "patent US20260256789A1",
  "about": "“METHODS FOR TREATMENT OF CANCER” (Frontier Medicines Corporation, priority 2022, published 2026)",
  "data": [
    {"target": "T1, KRAS G12C (GMPPNP-loaded) and cRAF Ras-binding domain (Homo sapiens, UniProt P01116, C118S/C51S/C80L/G12C)", "T1 construct": "truncated version comprising amino acids 1-169", "T1 sequence (P01116 1-169 isoform P01116-2 G12C/C51S/C80L/C118S)": "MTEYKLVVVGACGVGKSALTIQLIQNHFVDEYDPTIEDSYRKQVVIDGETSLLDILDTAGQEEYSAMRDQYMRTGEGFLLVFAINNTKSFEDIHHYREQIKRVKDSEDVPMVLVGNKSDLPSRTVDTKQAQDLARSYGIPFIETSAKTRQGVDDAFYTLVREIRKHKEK", "test": "Inhibition of KRAS G12C and cRAF binding (AlphaScreen)", "conditions": "KRAS G12C preloaded with GTP analogue GMPPNP, 2 hours preincubation", "summary_of_the_method": "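Compounds (10-point, 1:3 from 50 μM; 2% DMSO) were incubated 2 h at room temperature with 0.5 nM GMPPNP-preloaded truncated Cys-light KRAS G12C, then 60-90 min with 0.75 nM GST-RBD of cRAF and AlphaScreen beads. Signal at 570 nm gave IC50 by 4-parameter regression, and a biotin-AviTag-GST counter assay excluded interference with the AlphaScreen readout.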", "units": {"IC50": "nM"}, "values": [
      {"smiles": "C=CC(=O)N1CC[C@@H](N(C)c2nc(OCC34CCCN3CCC4)nc3c2CC(C)C(c2nc(N)cc(C)c2C(F)(F)F)C3)C1", "note": "(stereo partly drawn) [Example 32, 1-((3R)-3-((7-(6-amino-4-methyl-3-(trifluoromethyl)pyridin-2-yl)-2-((hexahydro-1H-pyrrolizin-7a-yl)methoxy)-6-methyl-5,6,7,8-tetrahydroquinazolin-4-yl)(methyl)amino)pyrrolidin-1-yl)prop-2-en-1-one]", "IC50": "10 to 100"},
      {"smiles": "C=CC(=O)N1CC(CN(C)c2nc(OCC34CCCN3CCC4)nc3c2C[C@H](C)[C@@H](c2nc(N)cc(C)c2C(F)(F)F)C3)C1", "note": "(single isomer, unassigned) [Example 50]", "IC50": "≥ 500"},
      {"smiles": "C#Cc1cccc2[nH]nc(-c3ncc4c(N(C)[C@@H]5CCN(C(=O)C=C)C5)nc(OC[C@@]56CCCN5C[C@H](F)C6)nc4c3F)c12", "note": "[Example 216]", "IC50": "≥ 500"},
      {"smiles": "Cc1cc(/C=C/C(=O)N2CC(CN(C)c3nc(OC[C@@]45CCCN4C[C@H](F)C5)nc4c(F)c(-c5cccc(Cl)c5C5CC5)ncc34)C2)nc(C)n1", "note": "[Example 200]", "IC50": "100 to 500"},
      {"smiles": "C=CC(=O)N1CC[C@@H](N(C)c2nc(OC[C@@]34CCCN3C[C@H](F)C4)nc3c2C[C@@H](C)[C@H](c2nc(N)cc(C)c2C(F)(F)F)C3)C1", "note": "[Example 59, 1-((R)-3-(((6R,7R)-7-(6-amino-4-methyl-3-(trifluoromethyl)pyridin-2-yl)-2-(((2R,7aS)-2-fluorohexahydro-1H-pyrrolizin-7a-yl)methoxy)-6-methyl-5,6,7,8-tetrahydroquinazolin-4-yl)(methyl)amino)pyrrolidin-1-yl)prop-2-en-1-one]", "IC50": "100 to 500"},
      {"smiles": "CN(c1nc(OC[C@@]23CCCN2C[C@H](F)C3)nc2c(F)c(-c3cccc(Cl)c3C3CC3)ncc12)[C@@H]1CCN(C(=O)C#C[C@@]2(C)CCCN2C)C1", "note": "[Example 235]", "IC50": "10 to 100"},
      {"smiles": "Cc1noc(/C=C/C(=O)N2CC[C@@H](N(C)c3nc(OCC45CCCN4CCC5)nc4c3C[C@@H](C)[C@H](c3nc(N)cc(C)c3C(F)(F)F)C4)C2)n1", "note": "[Example 124]", "IC50": "100 to 500"},
      {"smiles": "Cc1nccc(/C=C/C(=O)N2CC(CN(C)c3nc(OC[C@@]45CCCN4C[C@H](F)C5)nc4c(F)c(-c5nc(N)cc6cccc(F)c56)ncc34)C2)n1", "note": "[Example 141, (E)-1-(3-(((7-(3-amino-8-fluoroisoquinolin-1-yl)-8-fluoro-2-(((2R,7aS)-2-fluorotetrahydro-1H-pyrrolizin-7a(5H)-yl)methoxy)pyrido[4,3-d]pyrimidin-4-yl)(methyl)amino)methyl)azetidin-1-yl)-3-(2-methylpyrimidin-4-yl)prop-2-en-1-one]", "IC50": "10 to 100"},
      {"smiles": "Cc1nsc(/C=C/C(=O)N2CC[C@@H](N(C)c3nc(OC[C@@]45CCCN4C[C@H](F)C5)nc4c3C[C@H](C)[C@@H](c3nc(N)cc(C)c3C(F)(F)F)C4)C2)n1", "note": "[Example 88, (E)-1-((R)-3-(((6S,7S)-7-(6-amino-4-methyl-3-(trifluoromethyl)pyridin-2-yl)-2-(((2R,7aS)-2-fluorotetrahydro-1H-pyrrolizin-7a(5H)-yl)methoxy)-6-methyl-5,6,7,8-tetrahydroquinazolin-4-yl)(methyl)amino)pyrrolidin-1-yl)-3-(3-methyl-1,2,4-thiadiazol-5-yl)prop-2-en-1-one]", "IC50": "≥ 500"},
      {"smiles": "Cc1noc(/C=C/C(=O)N2CC[C@@H](N(C)c3nc(OCC45CCCN4CCC5)nc4c3C[C@H](C)[C@@H](c3nc(N)cc(C)c3C(F)(F)F)C4)C2)n1", "note": "(single isomer, unassigned) [Example 17]", "IC50": "10 to 100"},
      {"smiles": "CN(c1nc(OC[C@@]23CCCN2C[C@H](F)C3)nc2c(F)c(-c3cccc(Cl)c3C3CC3)ncc12)[C@@H]1CCN(C(=O)C#C[C@]2(C)CCCN2)C1", "note": "[Example 193]", "IC50": "< 10"},
      {"smiles": "Cc1cc(N)nc(-c2ncc3c(N(C)[C@@H]4CCN(C(=O)/C=C/c5nc(C(C)C)no5)C4)nc(OC[C@@]45CCCN4C[C@H](F)C5)nc3c2F)c1C1CC1", "note": "[Example 170]", "IC50": "10 to 100"},
      {"smiles": "CC(C)c1noc(/C=C/C(=O)N2CC[C@@H](N(C)c3nc(OC[C@@]45CCCN4C[C@H](F)C5)nc4c(F)c(-c5nc(N)ccc5OC(F)F)ncc34)C2)n1", "note": "[Example 214]", "IC50": "10 to 100"},
      {"smiles": "C=CC(=O)N1CC[C@@H](N(C)c2nc(OC[C@@]34CCCN3C[C@H](F)C4)nc3c(F)c(-c4ccc(O)cc4C4CC4)ncc23)C1", "note": "[Example 233]", "IC50": "≥ 500"},
      {"smiles": "C=CC(=O)N1CC(CN(C)c2nc(OC[C@@]34CCCN3C[C@H](F)C4)nc3c2C[C@@H](C)[C@H](c2nc(N)cc(C)c2C(F)(F)F)C3)C1", "note": "[Example 132]", "IC50": "100 to 500"},
      {"smiles": "Cc1nsc(/C=C/C(=O)N2CC(CN(C)c3nc(OC[C@@]45CCCN4C[C@H](F)C5)nc4c3C[C@@H](C)[C@H](c3nc(N)cc(C)c3C(F)(F)F)C4)C2)n1", "note": "(single isomer, unassigned) [Example 126]", "IC50": "10 to 100"},
      {"smiles": "C=CC(=O)N1CC[C@@H](N(C)c2nc(OC[C@@]34CCCN3C[C@H](F)C4)nc3c(F)c(-c4cccc5sc(N)nc45)ncc23)C1", "note": "[Example 244]", "IC50": "10 to 100"},
      {"smiles": "Cc1cc(N)nc(-c2ncc3c(N4CCN(C#N)CC4)nc(OC[C@@]45CCCN4C[C@H](F)C5)nc3c2F)c1C(F)(F)F", "note": "[Example 49, 4-(7-(6-amino-4-methyl-3-(trifluoromethyl)pyridin-2-yl)-8-fluoro-2-(((2R,7aS)-2-fluorohexahydro-1H-pyrrolizin-7a-yl)methoxy)pyrido[4,3-d]pyrimidin-4-yl)piperazine-1-carbonitrile]", "IC50": "100 to 500"},
      {"smiles": "CN(C)CC#CC(=O)N1CC(CN(C)c2nc(OC[C@@]34CCCN3C[C@H](F)C4)nc3c(F)c(-c4nc(N)cc5cccc(Cl)c45)ncc23)C1", "note": "[Example 110]", "IC50": "10 to 100"},
      {"smiles": "C=CC(=O)N1CC[C@@H](N(C)c2nc(OC[C@@]34CCCN3C[C@H](F)C4)nc3c(F)c(-c4cccc(C(F)F)c4C4CC4)ncc23)C1", "note": "[Example 195]", "IC50": "≥ 500"},
      {"smiles": "Cc1cc(N)nc(-c2ncc3c(N(C)[C@@H]4CCN(C(=O)/C=C/c5nc(C(C)C)no5)C4)nc(OC[C@@]45CCCN4C[C@H](F)C5)nc3c2F)c1C", "note": "[Example 53, (E)-1-((R)-3-((7-(6-amino-3,4-dimethylpyridin-2-yl)-8-fluoro-2-(((2R,7aS)-2-fluorotetrahydro-1H-pyrrolizin-7a(5H)-yl)methoxy)pyrido[4,3-d]pyrimidin-4-yl)(methyl)amino)pyrrolidin-1-yl)-3-(3-isopropyl-1,2,4-oxadiazol-5-yl)prop-2-en-1-one]", "IC50": "10 to 100"},
      {"smiles": "CN(c1nc(OC[C@@]23CCCN2C[C@H](F)C3)nc2c(F)c(-c3cccc(Cl)c3C3CC3)ncc12)[C@@H]1CCN(C(=O)C#CCN2CCOCC2)C1", "note": "[Example 223]", "IC50": "100 to 500"},
      {"smiles": "CN1CC[C@@H]1/C=C/C(=O)N1CC[C@@H](N(C)c2nc(OC[C@@]34CCCN3C[C@H](F)C4)nc3c(F)c(-c4nc(N)cc5cccc(Cl)c45)ncc23)C1", "note": "(single isomer, unassigned) [Example 3]", "IC50": "10 to 100"},
      {"smiles": "Cc1cc(N)nc(-c2ncc3c(N(C)[C@@H]4CCN(C(=O)/C=C/c5nc(C(C)(C)O)no5)C4)nc(OC[C@@]45CCCN4C[C@H](F)C5)nc3c2F)c1C(F)(F)F", "note": "[Example 139]", "IC50": "< 10"},
      {"smiles": "Cc1cc(N)nc(-c2ncc3c(N(C)CC4CN(C(=O)/C=C/c5nc(C6CC6)no5)C4)nc(OC[C@@]45CCCN4C[C@H](F)C5)nc3c2F)c1C(F)(F)F", "note": "[Example 176]", "IC50": "< 10"},
      {"smiles": "C=CC(=O)N1CC[C@@H](N(C)c2nc(OC[C@@]34CCCN3C[C@H](F)C4)nc3c(F)c(-c4cc(O)c(C)cc4C4CC4)ncc23)C1", "note": "[Example 228]", "IC50": "≥ 500"},
      {"smiles": "CN(CC1CN(C(=O)/C=C/CN2CCOCC2)C1)c1nc(OC[C@@]23CCCN2C[C@H](F)C3)nc2c(F)c(-c3nc(N)cc4cccc(Cl)c34)ncc12", "note": "[Example 84, (E)-1-(3-(((7-(3-amino-8-chloroisoquinolin-1-yl)-8-fluoro-2-(((2R,7aS)-2-fluorotetrahydro-1H-pyrrolizin-7a(5H)-yl)methoxy)pyrido[4,3-d]pyrimidin-4-yl)(methyl)amino)methyl)azetidin-1-yl)-4-morpholinobut-2-en-1-one]", "IC50": "10 to 100"},
      {"smiles": "C=CC(=O)N1CC(CN(C)c2nc(OC[C@@]34CCCN3C[C@H](F)C4)nc3c(F)c(-c4nc(N)cc5cccc(F)c45)ncc23)C1", "note": "[Example 128, 1-(3-(((7-(3-amino-8-fluoroisoquinolin-1-yl)-8-fluoro-2-(((2R,7aS)-2-fluorotetrahydro-1H-pyrrolizin-7a(5H)-yl)methoxy)pyrido[4,3-d]pyrimidin-4-yl)(methyl)amino)methyl)azetidin-1-yl)prop-2-en-1-one]", "IC50": "≥ 500"},
      {"smiles": "C=CC(=O)N1CC(CN(C)c2nc(OC[C@@]34CCCN3C[C@H](F)C4)nc3c(F)c(-c4nc(N)cc(C)c4C(F)(F)F)ncc23)C1", "note": "[Example 64, 1-(3-(((7-(6-amino-4-methyl-3-(trifluoromethyl)pyridin-2-yl)-8-fluoro-2-(((2R,7aS)-2-fluorotetrahydro-1H-pyrrolizin-7a(5H)-yl)methoxy)pyrido[4,3-d]pyrimidin-4-yl)(methyl)amino)methyl)azetidin-1-yl)prop-2-en-1-one]", "IC50": "10 to 100"},
      {"smiles": "C=CC(=O)N1CC[C@@H](N(C)c2nc(OCC34CCCN3CCC4)nc3c2C[C@H](C)[C@@H](c2nc(N)cc(C)c2C(F)(F)F)C3)C1", "note": "[Example 148, 1-((R)-3-(((6S,7S)-7-(6-amino-4-methyl-3-(trifluoromethyl)pyridin-2-yl)-6-methyl-2-((tetrahydro-1H-pyrrolizin-7a(5H)-yl)methoxy)-5,6,7,8-tetrahydroquinazolin-4-yl)(methyl)amino)pyrrolidin-1-yl)prop-2-en-1-one]", "IC50": "100 to 500"}
    ]}
  ]
}
